Experimental data as given in ChEMBL document CHEMBL1201862, “PubChem BioAssay data set” (2004).
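Assay format: 96-well plates, 48-hour exposure. Abbreviation: GI50, concentration required for 50% inhibition of growth.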 The source made the active and inactive calls. No stated cut-off is given here; in the data, active = GI50 up to about 1.1 µM and inactive = higher.

How the values were obtained:
Experiment in all cases: inhibition of tumour cell growth, NCI panel, 48 h
786-0 = tested on: 786-0
A498 = tested on: A498
A549 = tested on: A549
ACHN = tested on: ACHN
BT-549 = tested on: BT-549
CAKI-1 = tested on: CAKI-1
CCRF-CEM = tested on: CCRF-CEM
COLO 205 = tested on: COLO 205
DU-145 = tested on: DU-145
EKVX = tested on: EKVX
HCC 2998 = tested on: HCC 2998
HCT-116 = tested on: HCT-116
HCT-15 = tested on: HCT-15
HL-60 = tested on: HL-60
HOP-62 = tested on: HOP-62
HOP-92 = tested on: HOP-92
HT-29 = tested on: HT-29
Hs-578T = tested on: Hs-578T
IGROV-1 = tested on: IGROV-1
K562 = tested on: K562
KM12 = tested on: KM12
LOX IMVI = tested on: LOX IMVI
M14 = tested on: M14
MCF7 = tested on: MCF7
MDA-MB-231 = tested on: MDA-MB-231
MDA-MB-435 = tested on: MDA-MB-435
MDA-N = tested on: MDA-N
MOLT-4 = tested on: MOLT-4
Malme-3M = tested on: Malme-3M
NCI-H226 = tested on: NCI-H226
NCI-H460 = tested on: NCI-H460
NCI-H522 = tested on: NCI-H522
NCI/ADR-RES = tested on: NCI/ADR-RES
OVCAR-3 = tested on: OVCAR-3
OVCAR-4 = tested on: OVCAR-4
OVCAR-5 = tested on: OVCAR-5
OVCAR-8 = tested on: OVCAR-8
PC-3 = tested on: PC-3
RPMI-8226 = tested on: RPMI-8226
RXF 393 = tested on: RXF 393
SF-268 = tested on: SF-268
SF-295 = tested on: SF-295
SF-539 = tested on: SF-539
SK-MEL-28 = tested on: SK-MEL-28
SK-MEL-2 = tested on: SK-MEL-2
SK-MEL-5 = tested on: SK-MEL-5
SK-OV-3 = tested on: SK-OV-3
SN12C = tested on: SN12C
SNB-19 = tested on: SNB-19
SNB-75 = tested on: SNB-75
SR = tested on: SR
SW-620 = tested on: SW-620
T47D = tested on: T47D
TK-10 = tested on: TK-10
U-251 = tested on: U-251
UACC-257 = tested on: UACC-257
UACC-62 = tested on: UACC-62
UO-31 = tested on: UO-31

## COc1cc(C2c3cc4c(cc3CC3COC(=O)N32)OCO4)cc(OC)c1OC (stereo not drawn)
786-0
  GI50: 3.09 µM (inactive)
A498
  GI50: 6.31 µM (inactive)
A549
  GI50: 3.08 µM (inactive)
ACHN
  GI50: 12.8 µM (inactive)
BT-549
  GI50: 6.27 µM (inactive)
CAKI-1
  GI50: 3.65 µM (inactive)
CCRF-CEM
  GI50: 2.56 µM (inactive)
COLO 205
  GI50: 1.92 µM (inactive)
DU-145
  GI50: 5.33 µM (inactive)
EKVX
  GI50: 4.76 µM (inactive)
HCC 2998
  GI50: 2.93 µM (inactive)
HCT-116
  GI50: 2.72 µM (inactive)
HCT-15
  GI50: 3.08 µM
HL-60
  GI50: 2.08 µM (inactive)
HOP-62
  GI50: 4.12 µM (inactive)
HOP-92
  GI50: 14.1 µM (inactive)
HT-29
  GI50: 2.12 µM (inactive)
Hs-578T
  GI50: 2.52 µM (inactive)
IGROV-1
  GI50: 7.13 µM (inactive)
K562
  GI50: 1.57 µM (inactive)
KM12
  GI50: 2.44 µM (inactive)
LOX IMVI
  GI50: 3.14 µM (inactive)
M14
  GI50: 3.37 µM (inactive)
MCF7
  GI50: 3.84 µM (inactive)
MDA-MB-231
  GI50: 3.71 µM (inactive)
MDA-MB-435
  GI50: 0.404 µM (active)
MDA-N
  GI50: 0.434 µM (active)
MOLT-4
  GI50: 3.67 µM (inactive)
Malme-3M
  GI50: 2.83 µM (inactive)
NCI-H226
  GI50: 19.5 µM (inactive)
NCI-H460
  GI50: 4 µM (inactive)
NCI-H522
  GI50: 1.57 µM (inactive)
NCI/ADR-RES
  GI50: 1.58 µM (inactive)
OVCAR-3
  GI50: 1.93 µM (inactive)
OVCAR-4
  GI50: 14.1 µM (inactive)
OVCAR-5
  GI50: > 53.1 µM (inactive)
OVCAR-8
  GI50: 4.03 µM (inactive)
PC-3
  GI50: 1.99 µM (inactive)
RPMI-8226
  GI50: 3.13 µM (inactive)
RXF 393
  GI50: 1.57 µM (inactive)
SF-268
  GI50: 8.04 µM (inactive)
SF-295
  GI50: 0.729 µM (active)
SF-539
  GI50: 2.39 µM (inactive)
SK-MEL-28
  GI50: 5.05 µM (inactive)
SK-MEL-2
  GI50: 6.73 µM (inactive)
SK-MEL-5
  GI50: 1.96 µM (inactive)
SK-OV-3
  GI50: 3.03 µM (inactive)
SN12C
  GI50: 4.73 µM (inactive)
SNB-19
  GI50: 4.26 µM (inactive)
SNB-75
  GI50: 14.8 µM (inactive)
SR
  GI50: 1.57 µM (inactive)
SW-620
  GI50: 2.13 µM (inactive)
T47D
  GI50: > 100 µM (inactive)
TK-10
  GI50: > 22.9 µM (inactive)
U-251
  GI50: 3.79 µM (inactive)
UACC-257
  GI50: 26.1 µM (inactive)
UACC-62
  GI50: 2.61 µM (inactive)
UO-31
  GI50: 5.33 µM (inactive)
